Measurements from patent US11046658B2, “Aminopyrazine derivatives as PI3K-γ inhibitors” (Incyte Corporation, priority 2018, dated 2021).
Structures can show the parent of a compound that is named as a salt. Where two headings read alike, the source gives them in different places.

Tests used:
[1] = molecular target: PI3Kγ (p110γ) Recombinant Human Protein (Homo sapiens (Human), UniProt P48736); assay: PI3K-γ Scintillation Proximity Assay; type: biochemical; settings: 2 μM ATP, 20 μM PIP2
Source text: (§1) Materials: [γ-^33P]ATP (10 mCi/mL) and Wheat Germ Agglutinin (WGA) YSi SPA Scintillation Beads was purchased from Perkin Elmer (Waltham, Mass.). Lipid kinase substrate, D-myo-Phosphatidylinositol 4,5-bisphosphate (PtdIns(4,5)P2)D (+)-sn-1,2-di-O-octanoylglyceryl, 3-O-phospho linked (PIP2), CAS 204858-53-7, was purchased from Echelon Biosciences (Salt Lake City, Utah). PI3Kγ (p110γ) Recombinant Human Protein was purchased from Life technology (Grand Island, N.Y.). ATP, MgCl2, DTT, EDTA, MOPS and CHAPS were purchased from Sigma Aldrich (St. Louis, Mo.).
(§2) The kinase reaction was conducted in polystyrene 384-well Greiner Bio-one white plate from Thermo Fisher Scientific in a final volume of 25 μL. Inhibitors were first diluted serially in DMSO and added to the plate wells before the addition of other reaction components. The final concentration of DMSO in the assay was 2%. The PI3Kγ assay was carried out at room temperature in 20 mM MOPS, pH 6.7, 10 mM MgCl2, 5 mM DTT and CHAPS 0.03%. Reactions were initiated by the addition of ATP, the final reaction mixture consisted of 20 μM PIP2, 2 μM ATP, 0.5 μCi [γ-^33P] ATP, 13 nM PI3Kγ. Reactions were incubated for 120 min and terminated by the addition of 40 μL SPA beads suspended in quench buffer: 163 mM potassium phosphate pH 7.8, 20% glycerol, 25 mM EDTA. The final concentration of SPA beads is 1.0 mg/mL. After the plate sealing, plates were shaken overnight at room temperature and centrifuged at 1500 rpm for 10 min, the radioactivity of the product was determined by scintillation counting on Topcount (Perkin-Elmer). IC50 determination was performed by fitting the curve of percent of the solvent control activity versus the log of the inhibitor concentration using the GraphPad Prism 6.0 software.

[2] = system: Phosphorylated Ribosomal Protein S6 (RPS6) in THP-1 cells; assay: THP-1 RPS6 ELISA Assay; type: cell-based, Human; settings: THP-1 cells, 10 nM MCP-1, read-out: PI3Kγ_THP1_RPS6_ELISA IC50
Procedure, shortened: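 Cells serum-starved overnight, pre-incubated with compounds 2 h at 37° C, then stimulated with 10 nM MCP-1 for 15 min. Lysates assayed for phospho-RPS6 by ELISA read at 450 nm. IC50 from percent inhibition vs log concentration curve fit.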

[3] = molecular target: PI3Kδ (p110δ/p85α) Recombinant Human Protein (Homo sapiens (Human), UniProt O00329); assay: PI3Kδ Scintillation Proximity Assay; type: biochemical; settings: 2 μM ATP, 20 μM PIP2
PI3Kδ (p110δ/p85α) Recombinant Human Protein, sequence (O00329 whole entry): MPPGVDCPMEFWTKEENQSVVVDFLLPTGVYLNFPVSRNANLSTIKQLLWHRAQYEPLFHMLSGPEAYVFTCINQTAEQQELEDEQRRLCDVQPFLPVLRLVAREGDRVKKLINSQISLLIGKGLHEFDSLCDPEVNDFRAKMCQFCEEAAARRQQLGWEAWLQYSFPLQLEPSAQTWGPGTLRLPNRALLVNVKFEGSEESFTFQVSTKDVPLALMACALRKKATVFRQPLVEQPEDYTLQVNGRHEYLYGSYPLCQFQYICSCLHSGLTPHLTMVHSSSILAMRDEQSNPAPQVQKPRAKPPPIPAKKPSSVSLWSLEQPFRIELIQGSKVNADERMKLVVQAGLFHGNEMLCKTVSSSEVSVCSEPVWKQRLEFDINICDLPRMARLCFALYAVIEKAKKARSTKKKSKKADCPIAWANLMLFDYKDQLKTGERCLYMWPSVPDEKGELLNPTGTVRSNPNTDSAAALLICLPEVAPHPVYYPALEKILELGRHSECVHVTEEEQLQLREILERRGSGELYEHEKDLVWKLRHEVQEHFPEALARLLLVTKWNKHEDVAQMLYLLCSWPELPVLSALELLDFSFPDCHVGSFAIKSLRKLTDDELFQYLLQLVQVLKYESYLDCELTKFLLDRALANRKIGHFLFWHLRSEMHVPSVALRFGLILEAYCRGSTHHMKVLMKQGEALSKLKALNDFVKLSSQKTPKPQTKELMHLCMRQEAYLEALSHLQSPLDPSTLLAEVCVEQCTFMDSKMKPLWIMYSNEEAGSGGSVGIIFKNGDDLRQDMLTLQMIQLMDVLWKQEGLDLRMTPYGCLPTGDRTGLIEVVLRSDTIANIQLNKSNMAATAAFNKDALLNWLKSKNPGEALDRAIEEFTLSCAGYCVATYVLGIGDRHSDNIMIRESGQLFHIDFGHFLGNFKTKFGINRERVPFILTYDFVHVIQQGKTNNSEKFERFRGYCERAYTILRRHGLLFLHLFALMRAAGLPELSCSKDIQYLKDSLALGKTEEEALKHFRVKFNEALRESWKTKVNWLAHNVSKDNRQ
PI3Kδ (p110δ/p85α) Recombinant Human Protein, sequence (P27986 whole entry partner): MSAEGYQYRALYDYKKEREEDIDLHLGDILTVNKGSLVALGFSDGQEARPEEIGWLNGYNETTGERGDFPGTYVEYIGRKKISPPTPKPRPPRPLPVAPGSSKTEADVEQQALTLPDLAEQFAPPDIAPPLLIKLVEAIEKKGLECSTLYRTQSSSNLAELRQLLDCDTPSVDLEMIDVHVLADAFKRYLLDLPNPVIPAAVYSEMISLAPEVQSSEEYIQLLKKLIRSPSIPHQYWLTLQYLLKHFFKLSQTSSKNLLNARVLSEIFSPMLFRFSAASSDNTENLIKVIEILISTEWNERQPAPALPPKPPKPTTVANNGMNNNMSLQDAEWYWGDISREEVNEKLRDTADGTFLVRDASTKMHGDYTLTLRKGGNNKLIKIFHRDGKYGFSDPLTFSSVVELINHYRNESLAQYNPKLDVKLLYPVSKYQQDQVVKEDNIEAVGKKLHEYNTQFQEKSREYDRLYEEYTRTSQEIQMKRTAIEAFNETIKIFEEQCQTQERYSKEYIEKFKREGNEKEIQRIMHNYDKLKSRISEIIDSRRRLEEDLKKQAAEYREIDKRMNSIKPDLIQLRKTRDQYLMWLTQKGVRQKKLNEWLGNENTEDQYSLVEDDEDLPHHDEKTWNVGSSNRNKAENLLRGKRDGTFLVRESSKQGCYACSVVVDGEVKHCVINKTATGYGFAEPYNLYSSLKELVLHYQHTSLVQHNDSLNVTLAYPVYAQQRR
Source text: as §1, with “PI3Kδ (p110δ/p85α)” for “PI3Kγ (p110γ)”, “Eurofins (St Charles, Mo.).” for “Life technology (Grand Island, N.Y.).”
as §2, with “PI3Kδ” for “PI3Kγ”, “3.4” for “13”, “PI3Kδ.” for “PI3Kγ.”, “(PerkinElmer).” for “(Perkin-Elmer).”

PI3Kγ (p110γ) Recombinant Human Protein, sequence (P48736 whole entry): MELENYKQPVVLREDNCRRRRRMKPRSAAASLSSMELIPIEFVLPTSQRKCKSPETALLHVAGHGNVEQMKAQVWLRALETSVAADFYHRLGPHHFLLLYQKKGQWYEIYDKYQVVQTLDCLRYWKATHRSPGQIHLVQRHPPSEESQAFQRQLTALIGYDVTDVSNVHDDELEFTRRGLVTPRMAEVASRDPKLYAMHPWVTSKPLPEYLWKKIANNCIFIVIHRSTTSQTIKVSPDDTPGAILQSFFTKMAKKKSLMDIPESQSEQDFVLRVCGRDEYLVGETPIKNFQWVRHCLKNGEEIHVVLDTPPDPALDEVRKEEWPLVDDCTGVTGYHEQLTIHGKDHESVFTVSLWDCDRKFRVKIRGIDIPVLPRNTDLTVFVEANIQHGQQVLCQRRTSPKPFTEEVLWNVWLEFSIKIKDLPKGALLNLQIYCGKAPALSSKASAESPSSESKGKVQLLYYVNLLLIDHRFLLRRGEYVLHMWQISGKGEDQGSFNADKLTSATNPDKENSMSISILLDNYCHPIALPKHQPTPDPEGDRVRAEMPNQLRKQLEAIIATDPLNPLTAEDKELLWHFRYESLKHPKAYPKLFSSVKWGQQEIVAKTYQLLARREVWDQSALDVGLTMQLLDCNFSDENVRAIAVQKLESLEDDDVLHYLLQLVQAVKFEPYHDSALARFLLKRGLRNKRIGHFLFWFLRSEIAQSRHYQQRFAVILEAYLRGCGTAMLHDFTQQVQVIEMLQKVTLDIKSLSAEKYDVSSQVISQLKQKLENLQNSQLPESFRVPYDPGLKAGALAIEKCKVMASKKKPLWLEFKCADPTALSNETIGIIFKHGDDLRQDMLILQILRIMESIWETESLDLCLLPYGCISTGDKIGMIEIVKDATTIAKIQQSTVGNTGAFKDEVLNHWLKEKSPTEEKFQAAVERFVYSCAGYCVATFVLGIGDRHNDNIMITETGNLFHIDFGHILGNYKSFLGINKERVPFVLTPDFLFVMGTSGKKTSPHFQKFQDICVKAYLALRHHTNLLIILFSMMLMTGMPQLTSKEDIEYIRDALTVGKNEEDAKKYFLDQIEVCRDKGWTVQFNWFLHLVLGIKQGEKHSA

IC50 ([1]; Table A4) [µM] | IC50 ([2]; Homo sapiens, Table A4) [µM] | IC50 ([3]; Table A4) [µM] | Compound | also measured
– | > 1 | < 0.5 | Cc1ccc(C)c(N2CCN(c3nc(-c4cc(C(O)(C(N)=O)C(F)(F)F)ccc4C)cnc3N)CC2)c1 (centres unmarked) [Example 119, 2-(3-(5-amino-6-(4-(2,5-dimethylphenyl)piperazin-1-yl)pyrazin-2-yl)-4-methylphenyl)-3,3,3-trifluoro-2-hydroxypropanamide trifluoroacetate] | –
– | > 1 | < 0.5 | Cc1ccc(C(O)(C(N)=O)C(F)(F)F)cc1-c1cnc(N)c(N2CCN(c3cccc(C(F)(F)F)c3)CC2)n1 (centres unmarked) [Example 121, 2-(3-(5-amino-6-(4-(3-(trifluoromethyl)phenyl)piperazin-1-yl)pyrazin-2-yl)-4-methylphenyl)-3,3,3-trifluoro-2-hydroxypropanamide trifluoroacetate] | –
– | < 1 | < 0.5 | CCOc1ccccc1N1CCN(c2nc(-c3cc(C(O)(C(N)=O)C(F)(F)F)ccc3C)cnc2N)CC1 (centres unmarked) [Example 129, 2-(3-(5-amino-6-(4-(2-ethoxyphenyl)piperazin-1-yl)pyrazin-2-yl)-4-methylphenyl)-3,3,3-trifluoro-2-hydroxypropanamide trifluoroacetate] | –

The remaining lines, values behind:

Compound | IC50 ([1]; Table A4) [µM] | IC50 ([2]; Homo sapiens, Table A4) [µM] | IC50 ([3]; Table A4) [µM] | also measured
2-(3-(5-amino-6-(2-methylthiazol-5-yl)pyrazin-2-yl)-4-methylphenyl)-3,3,3-trifluoro-2-hydroxypropanamide trifluoroacetate [Example 72] | – | – | – | IC50 ([1]; Table A3): < 0.1 µM; IC50 ([2]; Table A3): < 0.1 µM; IC50 ([3]; Table A3): < 0.1 µM
Cc1ccc(C(O)(C(N)=O)C(F)(F)F)cc1-c1cnc(N)c(C2CN(S(=O)(=O)c3cnn(C)c3)C2)n1 (single isomer, unassigned) [Example 107, 2-(3-(5-Amino-6-(1-((1-methyl-1H-pyrazol-4-yl)sulfonyl)azetidin-3-yl)pyrazin-2-yl)-4-methylphenyl)-3,3,3-trifluoro-2-hydroxypropanamide, trifluoroacetate salt] | < 0.1 | < 1 | < 2 | –
CCOC(=O)C1CC(c2nc(-c3cc(C(O)(C(N)=O)C(F)(F)F)ccc3C)cnc2N)C1 (single isomer, unassigned) [Example 108, Ethyl 3-(3-amino-6-(5-(3-amino-1,1,1-trifluoro-2-hydroxy-3-oxopropan-2-yl)-2-methylphenyl)pyrazin-2-yl)cyclobutane-1-carboxylate] | < 0.5 | – | < 2 | –
CCOC(=O)C1CC(c2nc(-c3cc(C(O)(C(N)=O)C(F)(F)F)ccc3C)cnc2N)C1 (single isomer, unassigned) [Example 109, Ethyl 3-(3-amino-6-(5-(3-amino-1,1,1-trifluoro-2-hydroxy-3-oxopropan-2-yl)-2-methylphenyl)pyrazin-2-yl)cyclobutane-1-carboxylate] | < 0.1 | – | < 0.5 | –
Cc1ccc(C(O)(C(N)=O)C(F)(F)F)cc1-c1cnc(N)c(C2CC(C(=O)NC(C)C)C2)n1 (single isomer, unassigned) [Example 110, 3-(3-Amino-6-(5-(3-amino-1,1,1-trifluoro-2-hydroxy-3-oxopropan-2-yl)-2-methylphenyl)pyrazin-2-yl)-N-isopropylcyclobutane-1-carboxamide] | < 0.5 | – | < 0.5 | –
Cc1ccc(C(O)(C(N)=O)C(F)(F)F)cc1-c1cnc(N)c(C2CC(C(=O)NC(C)C)C2)n1 (single isomer, unassigned) [Example 111, 3-(3-Amino-6-(5-(3-amino-1,1,1-trifluoro-2-hydroxy-3-oxopropan-2-yl)-2-methylphenyl)pyrazin-2-yl)-N-isopropylcyclobutane-1-carboxamide] | < 0.1 | – | – | –
Cc1ccc(C(O)(C(=O)N(C)C)C(F)(F)F)cc1-c1cnc(N)c(-n2cncn2)n1 (centres unmarked) [Example 95, 2-(3-(5-Amino-6-(1H-1,2,4-triazol-1-yl)pyrazin-2-yl)-4-methylphenyl)-3,3,3-trifluoro-2-hydroxy-N,N-dimethylpropanamide trifluoroacetate] | – | – | – | IC50 ([1]; Table A3): < 0.5 µM; IC50 ([3]; Table A3): < 0.5 µM
Cc1ccc(C(O)(C(N)=O)C(F)(F)F)cc1-c1cnc(N)c(N2CC(=O)N(c3ccc(O)cc3)[C@@H](CO)C2)n1 (stereo partly drawn) [Example 124, 2-(3-(5-amino-6-((R)-3-(hydroxymethyl)-4-(4-hydroxyphenyl)-5-oxopiperazin-1-yl)pyrazin-2-yl)-4-methylphenyl)-3,3,3-trifluoro-2-hydroxypropanamide trifluoroacetate] | – | < 1 | < 0.5 | –
